Reference: patent publication US9169254B2, “Spiroimidazolone derivative” (Chugai Seiyaku Kabushiki Kaisha, priority 2009, dated 2015)

biological target: T1, human PTH1 receptor (Homo sapiens, UniProt Q03431); assay: In vitro cAMP signal activity in HKRK-B7 cells (LLC-PK1 cells overexpressing the human PTH1 receptor); format: cell-based; conditions: HKRK-B7 cells; compound at 1×10^−3 M; cAMP produced as percentage of that produced by hPTH(1-34) at 100 nM
T1 sequence (Q03431 27-593): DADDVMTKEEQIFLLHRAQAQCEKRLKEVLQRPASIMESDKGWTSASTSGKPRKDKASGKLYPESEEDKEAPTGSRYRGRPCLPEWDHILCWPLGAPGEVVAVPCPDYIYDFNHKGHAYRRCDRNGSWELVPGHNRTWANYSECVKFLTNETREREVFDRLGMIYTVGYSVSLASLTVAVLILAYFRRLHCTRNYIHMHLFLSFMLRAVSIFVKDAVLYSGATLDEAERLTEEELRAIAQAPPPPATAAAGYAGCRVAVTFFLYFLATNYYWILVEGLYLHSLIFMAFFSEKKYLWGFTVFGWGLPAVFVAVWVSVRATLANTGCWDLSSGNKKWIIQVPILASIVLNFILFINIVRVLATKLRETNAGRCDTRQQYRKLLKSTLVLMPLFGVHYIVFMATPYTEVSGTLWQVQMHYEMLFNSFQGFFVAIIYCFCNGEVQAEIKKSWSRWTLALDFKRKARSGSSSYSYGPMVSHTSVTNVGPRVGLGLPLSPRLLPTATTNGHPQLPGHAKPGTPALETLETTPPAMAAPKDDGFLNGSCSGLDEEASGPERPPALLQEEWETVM

| SMILES | cAMP production activity (%) |
| --- | --- |
| Cc1cc(N(C)C(N)=O)cc(C)c1/C=C/S(=O)(=O)N1CCC2(CC1)N=C(c1cccc(OC(F)(F)F)c1)NC2=O [Compound 1015, 1-(3,5-dimethyl-4-{(E)-2-[4-oxo-2-(3-trifluoromethoxy-phenyl)-1,3,8-triaza-spiro[4.5]dec-1-ene-8-sulfonyl]-vinyl}-phenyl)-1-methyl-urea] | 83 |
| CNc1cc(C)c(/C=C/S(=O)(=O)N2CCC3(CC2)N=C(c2cccc(SC(F)(F)F)c2)NC3=O)c(C)c1 [Compound 1016, 8-[(E)-2-(2,6-Dimethyl-4-methylamino-phenyl)-ethenesulfonyl]-2-(3-trifluoromethylsulfanyl-phenyl)-1,3,8-triaza-spiro[4.5]dec-1-en-4-one] | 92 |
| Cc1cc(N(C)C(N)=O)cc(C)c1/C=C/S(=O)(=O)N1CCC2(CC1)N=C(c1ccc(F)c(C(F)(F)F)c1)NC2=O [Compound 1017, 1-(4-{(E)-2-[2-(4-Fluoro-3-trifluoromethyl-phenyl)-4-oxo-1,3,8-triaza-spiro[4.5]dec-1-ene-8-sulfonyl]-vinyl}-3,5-dimethyl-phenyl)-1-methyl-urea] | 101 |
| Cc1cc(N(C)C(N)=O)cc(C)c1/C=C/S(=O)(=O)N1CCC2(CC1)N=C(c1cccc(OC(F)(F)C(F)F)c1)NC2=O [Compound 1018, 1-[3,5-dimethyl-4-((E)-2-{4-oxo-2-[3-(1,1,2,2-tetrafluoro-ethoxy)-phenyl]-1,3,8-triaza-spiro[4.5]dec-1-ene-8-sulfonyl}-vinyl)-phenyl]-1-methyl-urea] | 109 |
| Cc1cc(N(C)C(N)=O)cc(C)c1/C=C/S(=O)(=O)N1CCC2(CC1)N=C(c1cccc(OCCCC(F)(F)F)c1)NC2=O [Compound 1019, 1-[3,5-dimethyl-4-((E)-2-{4-oxo-2-[3-(4,4,4-trifluoro-butoxy)-phenyl]-1,3,8-triaza-spiro[4.5]dec-1-ene-8-sulfonyl}-vinyl)-phenyl]-1-methyl-urea] | 72 |
| Cc1cc(N(C)C(N)=O)cc(C)c1/C=C/S(=O)(=O)N1CCC2(CC1)N=C(c1ccc(OCCCC(F)(F)F)cc1)NC2=O [Compound 1020, 1-[3,5-dimethyl-4-((E)-2-{4-oxo-2-[4-(4,4,4-trifluoro-butoxy)-phenyl]-1,3,8-triaza-spiro[4.5]dec-1-ene-8-sulfonyl}-vinyl)-phenyl]-1-methyl-urea] | 81 |
| CCCCCc1ccc(C2=NC3(CCN(S(=O)(=O)/C=C/c4c(C)cc(N(C)C(N)=O)cc4C)CC3)C(=O)N2)cc1 [Compound 1021, 1-(3,5-dimethyl-4-{(E)-2-[4-oxo-2-(4-pentyl-phenyl)-1,3,8-triaza-spiro[4.5]dec-1-ene-8-sulfonyl]-vinyl}-phenyl)-1-methyl-urea] | 137 |
| CSCCCCCCCC1=NC2(CCN(S(=O)(=O)/C=C/c3c(C)cc(N(C)C(N)=O)cc3C)CC2)C(=O)N1 [Compound 1022, 1-(3,5-Dimethyl-4-{(E)-2-[2-(7-methylsulfanyl-heptyl)-4-oxo-1,3,8-triaza-spiro[4.5]dec-1-ene-8-sulfonyl]-vinyl}-phenyl)-1-methyl-urea] | 105 |
| Cc1cc(N(C)C(N)=O)cc(C)c1/C=C/S(=O)(=O)N1CCC2(CC1)N=C(CCCCCCCCC1(C)COC1)NC2=O [Compound 1023, 1-[3,5-Dimethyl-4-((E)-2-{2-[8-(3-methyl-oxetan-3-yl)-octyl]-4-oxo-1,3,8-triaza-spiro[4.5]dec-1-ene-8-sulfonyl}-vinyl)-phenyl]-1-methyl-urea] | 92 |
| CCCCC#CCCCC1=NC2(CCN(S(=O)(=O)/C=C/c3c(C)cc(N(C)C(N)=O)cc3C)CC2)C(=O)N1 [Compound 1024, 1-{3,5-dimethyl-4-[(E)-2-(2-non-4-ynyl-4-oxo-1,3,8-triaza-spiro[4.5]dec-1-ene-8-sulfonyl)-vinyl]-phenyl}-1-methyl-urea] | 66 |
| CCCCCC#CCCC1=NC2(CCN(S(=O)(=O)/C=C/c3c(C)cc(N(C)C(N)=O)cc3C)CC2)C(=O)N1 [Compound 1025, 1-{3,5-dimethyl-4-[(E)-2-(2-non-3-ynyl-4-oxo-1,3,8-triaza-spiro[4.5]dec-1-ene-8-sulfonyl)-vinyl]-phenyl}-1-methyl-urea] | 114 |
| CCCCCCCC#CC1=NC2(CCN(S(=O)(=O)/C=C/c3c(C)cc(N(C)C(N)=O)cc3C)CC2)C(=O)N1 [Compound 1027, 1-{3,5-dimethyl-4-[(E)-2-(2-non-1-ynyl-4-oxo-1,3,8-triaza-spiro[4.5]dec-1-ene-8-sulfonyl)-vinyl]-phenyl}-1-methyl-urea] | 82 |
| Cc1cc(N(C)C(N)=O)cc(C)c1CCS(=O)(=O)N1CCC2(CC1)N=C(c1ccc(F)c(OC(F)(F)F)c1)NC2=O [Compound 1028, 1-(4-{2-[2-(4-Fluoro-3-trifluoromethoxy-phenyl)-4-oxo-1,3,8-triaza-spiro[4.5]dec-1-ene-8-sulfonyl]-ethyl}-3,5-dimethyl-phenyl)-1-methyl-urea] | 75 |
| Cc1cc(N(C)C(N)=O)cc(C)c1CCS(=O)(=O)N1CCC2(CC1)N=C(c1ccc3c(c1)OC(F)(F)O3)NC2=O [Compound 1029, 1-(4-{2-[2-(2,2-difluoro-benzo[1,3]dioxol-5-yl)-4-oxo-1,3,8-triaza-spiro[4.5]dec-1-ene-8-sulfonyl]-ethyl}-3,5-dimethyl-phenyl)-1-methyl-urea] | 104 |
| Cc1cc(N(C)C(N)=O)cc(C)c1CCS(=O)(=O)N1CCC2(CC1)N=C(c1ccc(C(C)(C)C)cc1)NC2=O [Compound 1030, 1-(4-{2-[2-(4-tert-butyl-phenyl)-4-oxo-1,3,8-triaza-spiro[4.5]dec-1-ene-8-sulfonyl]-ethyl}-3,5-dimethyl-phenyl)-1-methyl-urea] | 115 |
| Cc1cc(N(C)C(N)=O)cc(C)c1CCS(=O)(=O)N1CCC2(CC1)N=C(CCCCCCCCC1(C)COC1)NC2=O [Compound 1031, 1-[3,5-Dimethyl-4-(2-{2-[8-(3-methyl-oxetan-3-yl)-octyl]-4-oxo-1,3,8-triaza-spiro[4.5]dec-1-ene-8-sulfonyl}-ethyl)-phenyl]-1-methyl-urea] | 111 |
| Cc1cc(N(C)C(N)=O)cc(C)c1CCS(=O)(=O)N1CCC2(CC1)N=C(CCCCCCCCCCC1(C)COC1)NC2=O [Compound 1032, 1-[3,5-dimethyl-4-(2-{2-[10-(3-methyl-oxetan-3-yl)-decyl]-4-oxo-1,3,8-triaza-spiro[4.5]dec-1-ene-8-sulfonyl}-ethyl)-phenyl]-1-methyl-urea] | 88 |
| Cc1cc(N(C)C(=O)OC(C)(C)C)cc(C)c1CCS(=O)(=O)N1CCC2(CC1)N=C(C1CCCN1C(=O)OC(C)(C)C)NC2=O (stereo not drawn) [Compound 1033, 2-(8-{2-[4-(tert-Butoxycarbonyl-methyl-amino)-2,6-dimethyl-phenyl]-ethanesulfonyl}-4-oxo-1,3,8-triaza-spiro[4.5]dec-1-en-2-yl)-pyrrolidine-1-carboxylic acid tert-butyl ester] | 22 |
| Cc1cc(N(C)C(=O)OC(C)(C)C)cc(C)c1CCS(=O)(=O)N1CCC2(CC1)N=C(C(C)(F)F)NC2=O [Compound 1034, (4-{2-[2-(1,1-difluoro-ethyl)-4-oxo-1,3,8-triaza-spiro[4.5]dec-1-ene-8-sulfonyl]-ethyl}-3,5-dimethyl-phenyl)-methyl-carbamic acid tert-butyl ester] | 54 |
| CNc1cc(C)c(CCS(=O)(=O)N2CCC3(CC2)N=C(CCCCCCCC(F)(F)C(F)(F)F)NC3=O)c(C)c1 [Compound 1035, 8-[2-(2,6-Dimethyl-4-methylamino-phenyl)-ethanesulfonyl]-2-(8,8,9,9,9-pentafluoro-nonyl)-1,3,8-triaza-spiro[4.5]dec-1-en-4-one] | 77 |
| CNc1cc(C)c(CCS(=O)(=O)N2CCC3(CC2)N=C(c2cccc(SC(F)(F)F)c2)NC3=O)c(C)c1 [Compound 1036, 8-[2-(2,6-dimethyl-4-methylamino-phenyl)-ethanesulfonyl]-2-(3-trifluoromethylsulfanyl-phenyl)-1,3,8-triaza-spiro[4.5]dec-1-en-4-one] | 82 |
| CNc1cc(C)c(CCS(=O)(=O)N2CCC3(CC2)N=C(C2CCC(=C(C)C)CC2)NC3=O)c(C)c1 (stereo not drawn) [Compound 1037, 8-[2-(2,6-Dimethyl-4-methylamino-phenyl)-ethanesulfonyl]-2-(4-isopropylidene-cyclohexyl)-1,3,8-triaza-spiro[4.5]dec-1-en-4-one] | 87 |
| Cc1cc(N(C)C(N)=O)cc(C)c1CCS(=O)(=O)N1CCC2(CC1)N=C(c1cccc(OC(F)(F)C(F)F)c1)NC2=O [Compound 1038, 1-[3,5-Dimethyl-4-(2-{4-oxo-2-[3-(1,1,2,2-tetrafluoro-ethoxy)-phenyl]-1,3,8-triaza-spiro[4.5]dec-1-ene-8-sulfonyl}-ethyl)-phenyl]-1-methyl-urea] | 111 |
| Cc1cc(N(C)C(N)=O)cc(C)c1CCS(=O)(=O)N1CCC2(CC1)N=C(c1ccc3c(c1)CCCC3)NC2=O [Compound 1039, 1-(3,5-Dimethyl-4-{2-[4-oxo-2-(5,6,7,8-tetrahydro-naphthalen-2-yl)-1,3,8-triaza-spiro[4.5]dec-1-ene-8-sulfonyl]-ethyl}-phenyl)-1-methyl-urea] | 103 |
